Data reported in US20250360109A1, “COMPOSITIONS AND METHODS FOR TREATING DEPRESSION IN FEMALES” (priority 2022, published 2025).

Columns and labels:
Format in all cases: in vivo, human
[1] = tested on: adult subjects with major depressive disorder (MDD); assay: Phase 2 placebo-controlled study in MDD, Quick Inventory of Depressive Symptomology-Self Report (QIDS-SR); settings: mITT; for Change from Baseline, QIDS Total at Week 2, LSM Difference (95% CI) / Change from Baseline, QIDS Total at Week 4, LSM Difference (95% CI): 20 mg/day vs Placebo; for Change from Baseline, QIDS Total at Week 2, Mean (SD) / Change from Baseline, QIDS Total at Week 2, Median / Change from Baseline, QIDS Total at Week 4, Mean (SD) / Change from Baseline, QIDS Total at Week 4, Median / QIDS Total at Week 2, Mean (SD) / QIDS Total at Week 2, Median / QIDS Total at Week 4, Mean (SD) / QIDS Total at Week 4, Median: 20 mg/day
Method: (§1) A Phase 2, multicenter, double-blind, randomized, placebo-controlled study of the safety and efficacy of SP-624 in the treatment of adult subjects with major depressive disorder (MDD) as defined by the Diagnostic and Statistical Manual of Mental Disorders, Fifth Edition (DSM-5) was carried out. Following the successful completion of a Screening Phase, subjects were randomized to one of two treatment groups in a 1:1 ratio and received Compound 1 (SP-624) or placebo over a treatment period of four weeks (Treatment Group #1: SP-624 20 mg/day; Treatment Group #2: Placebo).
(§2) Prior to initiating the 4-week treatment period, subjects completed a Screening/Baseline period of up to 28 days, during which time all screening assessments were performed, and any current depression medications discontinued. All screening assessments were completed before discontinuing any current depression medications. Subjects returned for a Baseline Visit to complete efficacy and safety assessments. During the treatment period, subjects returned to the investigative site to complete efficacy and safety assessments at the end of Weeks 1, 2, 3, and 4. After the final dose of study drug, subjects completed a follow-up period of two weeks and returned at the end of Weeks 5 and 6. Subjects may be treated with anti-depressant medications according to physician recommendations after completion of the Week 5 Visit.
(§3) Each dose of Compound 1 was supplied as two capsules, each containing 10 mg of active pharmaceutical ingredient (API). Matching placebo capsules identical in shape and color to the active capsules were used.
(§4) Secondary efficacy endpoints included: • Change from Baseline to Weeks 1, 2, and 3 in MADRS total score, • Change from Baseline to Weeks 1, 2, 3, and 4 in Clinical Global Impression-Severity (CGI-S) total score, • Change from Baseline to Week 5 and change from Week 4 to Week 5 in MADRS total score and CGI-S total score, • Change from Baseline to Week 2 and Week 4 in the 17-item Hamilton Depression Rating Scale (HAM D-17) total score, • Change from Baseline to Week 2 and Week 4 in the Sheehan Disability Scale (SDS), • Change from Baseline to Week 2 and Week 4 in the Quick Inventory of Depressive Symptomology-Self Report (QIDS-SR), and • Change from Baseline to Week 2 and Week 4 in the Quality of Life Enjoyment and Satisfaction Questionnaire-Short Form (Q-LES-Q-SF).

[2] = tested on: adult subjects with major depressive disorder (MDD); assay: Phase 2 placebo-controlled study in MDD, Quality of Life Enjoyment and Satisfaction Questionnaire-Short Form (Q-LES-Q-SF); settings: mITT; for Change from Baseline, Q-LES-Q-SF Total at Week 2, LSM Difference (95% CI) / Change from Baseline, Q-LES-Q-SF Total at Week 4, LSM Difference (95% CI): 20 mg/day vs Placebo; for Change from Baseline, Q-LES-Q-SF Total at Week 2, Mean (SD) / Change from Baseline, Q-LES-Q-SF Total at Week 2, Median / Change from Baseline, Q-LES-Q-SF Total at Week 4, Mean (SD) / Change from Baseline, Q-LES-Q-SF Total at Week 4, Median / Q-LES-Q-SF Total at Week 2, Mean (SD) / Q-LES-Q-SF Total at Week 2, Median / Q-LES-Q-SF Total at Week 4, Mean (SD) / Q-LES-Q-SF Total at Week 4, Median: 20 mg/day
Method: as §1, §2, §3, §4

[3] = tested on: adult subjects with major depressive disorder (MDD); assay: Phase 2 placebo-controlled study in MDD, Sheehan Disability Scale (SDS); settings: mITT; for Change from Baseline, SDS Total at Week 2, LSM Difference (95% CI) / Change from Baseline, SDS Total at Week 4, LSM Difference (95% CI): 20 mg/day vs Placebo; for Change from Baseline, SDS Total at Week 2, Mean (SD) / Change from Baseline, SDS Total at Week 2, Median / Change from Baseline, SDS Total at Week 4, Mean (SD) / Change from Baseline, SDS Total at Week 4, Median / SDS Total at Week 2, Mean (SD) / SDS Total at Week 2, Median / SDS Total at Week 4, Mean (SD) / SDS Total at Week 4, Median: 20 mg/day
Method: as §1, §2, §3, §4

Compound: COC1=CC(=O)C[C@@H](C)[C@]12Oc1c(Cl)c(-c3nnc(C)o3)cc(OC)c1C2=O [SP-624, (2S,6′R)-7-Chloro-2′,4-dimethoxy-6′-methyl-6-(5-methyl-1,3,4-oxadiazol-2-yl)-3H-spiro[1-benzofuran-2,1′-cyclohex [2]ene]-3,4′-dione]
- Change from Baseline, QIDS Total at Week 2, LSM Difference (95% CI) ([1]; Female): −1.1 (−2.4, 0.3)
- Change from Baseline, QIDS Total at Week 4, LSM Difference (95% CI) ([1]; Female): −2.0 (−3.3, −0.6)
- Change from Baseline, QIDS Total at Week 2, Mean (SD) ([1]; Female): −3.9 (4.37)
- Change from Baseline, QIDS Total at Week 2, Median ([1]; Female): −3
- Change from Baseline, QIDS Total at Week 4, Mean (SD) ([1]; Female): −5.7 (4.76)
- Change from Baseline, QIDS Total at Week 4, Median ([1]; Female): −5
- QIDS Total at Week 2, Mean (SD) ([1]; Female): 11.7 (4.87)
- QIDS Total at Week 2, Median ([1]; Female): 12
- QIDS Total at Week 4, Mean (SD) ([1]; Female): 10.2 (4.69)
- QIDS Total at Week 4, Median ([1]; Female): 10
- Change from Baseline, QIDS Total at Week 2, LSM Difference (95% CI) ([1]; Male): 1.2 (−0.9, 3.2)
- Change from Baseline, QIDS Total at Week 4, LSM Difference (95% CI) ([1]; Male): 1.1 (−0.8, 3.0)
- Change from Baseline, QIDS Total at Week 2, Mean (SD) ([1]; Male): −2.1 (5.50)
- Change from Baseline, QIDS Total at Week 2, Median ([1]; Male): −2
- Change from Baseline, QIDS Total at Week 4, Mean (SD) ([1]; Male): −3.3 (4.46)
- Change from Baseline, QIDS Total at Week 4, Median ([1]; Male): −4
- QIDS Total at Week 2, Mean (SD) ([1]; Male): 11.7 (5.27)
- QIDS Total at Week 2, Median ([1]; Male): 12
- QIDS Total at Week 4, Mean (SD) ([1]; Male): 10.4 (4.55)
- QIDS Total at Week 4, Median ([1]; Male): 11
- Change from Baseline, Q-LES-Q-SF Total at Week 2, LSM Difference (95% CI) ([2]; Female): 1.1 (−1.8, 3.9)
- Change from Baseline, Q-LES-Q-SF Total at Week 4, LSM Difference (95% CI) ([2]; Female): 3.3 (−0.3, 6.8)
- Change from Baseline, Q-LES-Q-SF Total at Week 2, Mean (SD) ([2]; Female): 7.8 (10.32)
- Change from Baseline, Q-LES-Q-SF Total at Week 2, Median ([2]; Female): 6
- Change from Baseline, Q-LES-Q-SF Total at Week 4, Mean (SD) ([2]; Female): 11.4 (14.11)
- Change from Baseline, Q-LES-Q-SF Total at Week 4, Median ([2]; Female): 10
- Q-LES-Q-SF Total at Week 2, Mean (SD) ([2]; Female): 59.2 (11.32)
- Q-LES-Q-SF Total at Week 2, Median ([2]; Female): 59
- Q-LES-Q-SF Total at Week 4, Mean (SD) ([2]; Female): 62.1 (13.87)
- Q-LES-Q-SF Total at Week 4, Median ([2]; Female): 59
- Change from Baseline, Q-LES-Q-SF Total at Week 2, LSM Difference (95% CI) ([2]; Male): −2.2 (−6.7, 2.3)
- Change from Baseline, Q-LES-Q-SF Total at Week 4, LSM Difference (95% CI) ([2]; Male): −1.3 (−6.4, 3.7)
- Change from Baseline, Q-LES-Q-SF Total at Week 2, Mean (SD) ([2]; Male): 5.5 (10.39)
- Change from Baseline, Q-LES-Q-SF Total at Week 2, Median ([2]; Male): 4
- Change from Baseline, Q-LES-Q-SF Total at Week 4, Mean (SD) ([2]; Male): 7.1 (11.54)
- Change from Baseline, Q-LES-Q-SF Total at Week 4, Median ([2]; Male): 6
- Q-LES-Q-SF Total at Week 2, Mean (SD) ([2]; Male): 59.5 (12.80)
- Q-LES-Q-SF Total at Week 2, Median ([2]; Male): 59
- Q-LES-Q-SF Total at Week 4, Mean (SD) ([2]; Male): 61.5 (12.26)
- Q-LES-Q-SF Total at Week 4, Median ([2]; Male): 61
- Change from Baseline, SDS Total at Week 2, LSM Difference (95% CI) ([3]; Female): −1.7 (−3.3, −0.1)
- Change from Baseline, SDS Total at Week 4, LSM Difference (95% CI) ([3]; Female): −2.0 (−3.8, −0.2)
- Change from Baseline, SDS Total at Week 2, Mean (SD) ([3]; Female): −4.7 (5.74)
- Change from Baseline, SDS Total at Week 2, Median ([3]; Female): −4
- Change from Baseline, SDS Total at Week 4, Mean (SD) ([3]; Female): −5.8 (6.70)
- Change from Baseline, SDS Total at Week 4, Median ([3]; Female): −5
- SDS Total at Week 2, Mean (SD) ([3]; Female): 11.8 (6.24)
- SDS Total at Week 2, Median ([3]; Female): 11
- SDS Total at Week 4, Mean (SD) ([3]; Female): 11.2 (6.98)
- SDS Total at Week 4, Median ([3]; Female): 11
- Change from Baseline, SDS Total at Week 2, LSM Difference (95% CI) ([3]; Male): 2.6 (0.3, 4.8)
- Change from Baseline, SDS Total at Week 4, LSM Difference (95% CI) ([3]; Male): 1.3 (−1.3, 3.8)
- Change from Baseline, SDS Total at Week 2, Mean (SD) ([3]; Male): −2.4 (5.27)
- Change from Baseline, SDS Total at Week 2, Median ([3]; Male): −2
- Change from Baseline, SDS Total at Week 4, Mean (SD) ([3]; Male): −5.0 (6.14)
- Change from Baseline, SDS Total at Week 4, Median ([3]; Male): −4
- SDS Total at Week 2, Mean (SD) ([3]; Male): 12.8 (5.99)
- SDS Total at Week 2, Median ([3]; Male): 13
- SDS Total at Week 4, Mean (SD) ([3]; Male): 10.5 (6.39)
- SDS Total at Week 4, Median ([3]; Male): 10
